According to US20240109905A1, “4-ALKOXY-6-OXO-PYRIDAZINE DERIVATIVES MODULATING NLRP3” (JANSSEN PHARMACEUTICA NV, priority 2021, published 2024):

How the values were obtained:
IL-1β = test: PBMC assay: IL-1β release after LPS stimulation; assay type: cell-based; details: PBMC; human PBMCs, 30 min compound, 100 ng/ml LPS for 6 hrs, MSD; read-out: IL1β AC50
Outline: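 Thawed PBMCs from healthy donors (7.5×10^4 cells/well) were preincubated with serially diluted compound for 30 min at 37 °C, then stimulated with 100 ng/ml LPS (final) for 6 h. IL-1β in the supernatant was measured by MSD immunoassay, and AC50 values were derived from the concentration-response data.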

TNF = test: PBMC assay: TNF cytokine level after LPS stimulation; assay type: cell-based; details: PBMC; human PBMCs, 30 min compound, 100 ng/ml LPS for 6 hrs, MSD
Outline: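 Thawed human PBMCs from healthy donors (7.5×10^4 per well, RPMI + 10% FBS) preincubated 30 min at 37° C with 1:3 serially diluted compounds, then stimulated 6 h with 100 ng/ml LPS (final). Supernatant TNF measured by MSD immunoassay; EC50/AC50 derived.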

| Structure (SMILES) | AC50 (IL-1β) [µM] | AC50 (TNF) [µM] |
| --- | --- | --- |
| CC(C)COc1c(C(C)C)nn(CC(=O)Nc2ccc3nncn3c2)c(=O)c1C(C)O (stereo not drawn) [Compound 155] | > 20 | > 20 |
| O=C(Cn1nc(OCC(F)(F)F)c(OCC(F)(F)F)cc1=O)Nc1ccc2nncn2c1 [Compound 156] | > 20 | > 20 |
| CN(C)c1nn(CCO)c(=O)cc1OCC1CC1 [Compound 157, 5-(cyclopropylmethoxy)-6-(dimethylamino)-2-(2-hydroxyethyl)pyridazin-3(2H)-one] | > 20 | > 20 |
| CC(C)COc1cc(=O)n(CCO)nc1N(C)C [Compound 158] | > 20 | > 20 |
| CC(C)c1nn(CC(=O)Nc2ccc3nncn3c2)c(=O)cc1OC1CCNC1 (stereo not drawn) [Compound 159] | > 20 | > 20 |
| CC(C)c1nn(CC(=O)Nc2ccc3nncn3c2)c(=O)cc1OCC1CNC1 [Compound 160] | > 20 | > 20 |
| CC(C)c1nn(CC(=O)Nc2ccc3nncn3c2)c(=O)cc1OC1CNC1 [Compound 161] | > 20 | > 20 |
| COc1cc(=O)n(CC(=O)Nc2ccc3nncn3c2)nc1C(C)C [Compound 162] | > 20 | > 20 |
| CC(C)COc1c(C(C)C)nn(CC(=O)Nc2ccc3nncn3c2)c(=O)c1C(F)(F)F [Compound 163] | > 20 | > 20 |
